Laboratory results as given in patent publication US20250075249A1, “AND-GATE ALLOSTERIC PROTEIN-BASED SWITCHES” (QUEENSLAND UNIVERSITY OF TECHNOLOGY, priority 2022, published 2025).

How the values were obtained:
[1] = test system: M13 CaM-BP; assay: BLA-CaM chimera activity, nitrocefin assay with or without CaM-BP; type: biochemical
From the text: FIG. 5. Construction of β-lactamase single insert CaM chimeras (BLA-CaM). (A) A schematic showing th β-lactamase (BLA) assay. BLA degrades the beta-lactam ring nitrocefin. which can be detected by a colour change from yellow to red, for example using a wavelength λ=482 nm (wavelengths of λ=486 nm and λ=480 nm may also be used). […] (C) Activity of purified BLA-CaM chimeras in the presence (interrupted line) or absence (solid line) of saturating concentrations of M13 peptide. The insertion position is indicated by a number and a letter denoting deleted amino acid.
FIG. 6. Construction of B-lactamase double insert CaM chimeras (2CaM-BLA). (A) Activity analysis of a solution of 250 nM BLA-CaM 41G in the presence of 50 μM nitrocefin and in the presence (interrupted line) or absence (solid line) of 1 μM of M13 CaM-BP. […]
A range of insertion mutants of the enzyme β-lactamase (BLA) and calmodulin were constructed. β-lactamase degrades the beta-lactam ring in nitrocefin, which can be detected by a colour change from yellow to red (FIG. 5A). The β-lactamase structure (PDB: 3gmw) was analysed and a range of Calmodulin (BLA-CaM) chimeras were designed. […] The activity of the wild type β-lactamase as well as the BLA-CaM chimeras was monitored in the presence or absence of CaM-BP (M13). […]

[2] = test system: M13 CaM-BP; assay: GDH-CaM chimera activity, PMS/DCPIP assay with or without CaM-BP; type: biochemical; settings: 10 nM chimera, presence vs absence of 1 μM M13 CaM-BP
Protocol: FIG. 11. Construction of a glucose dehydrogenase (GDH) AND gate biosensor. (A) GDH-CaM 48N activation by CaM-BP. activity analysis of a solution of 10 nM GDH-CaM 48N in the presence of 0.6 mM PMS as electron mediator and 60 μM DCPIP reporter dye in the presence of absence of 1 μM of M13 CaM-BP. (B) GDH-CaM 212N activation by CaM-BP. activity analysis of a solution of 10 nM GDH-CaM 212N in the presence of 0.6 mM PMS as electron mediator and 60 μM DCPIP reporter dye in the presence of absence of 1 μM of M13 CaM-BP. (C) GDH-CaM 48N_212N activation by CaM-BP. activity analysis of a solution of 10 nM GDH-CaM 48N_212N in the presence of 0.6 mM PMS as electron mediator and 60 μM DCPIP reporter dye in the presence of absence of 1 μM of M13 CaM-BP.
A range of insertion mutants of the enzyme glucose dehydrogenase (GDH) and calmodulin were constructed. […] The activity of GDH was monitored using 5-methylphenazinium methyl sulfate (PMS) as an electron mediator and 2,6-dichlorophenolindophenol (DCPIP) as a reporter dye, which upon reduction changes from blue to colourless. The GDH structure (PDB: 1c9u) was analysed and a library of CaM domain insertions was generated. […]
E.coli and purified to homogeneity. […] The activity of the wild type GDH as well as the GDH-CaM chimeras was monitored in the presence or absence of CaM-BP (M13). […]

Substance | activity retained compared to the wild type enzyme ([1]; 10 nM enzyme, saturating M13 CaM-BP) | dynamic range ([1]; 50 μM nitrocefin, presence vs absence of M13 CaM-BP) | dynamic range [2]
BLA-CaM 41G_197E: β-lactamase with calmodulin insertions at positions 41 and 197 | about 25% | over 7000 fold | –
GDH-CaM 48N_212N: Glucose dehydrogenase with calmodulin insertions at positions 48 and 212 | – | – | over 20 fold
